Test results published in patent publication US20090221523A1 (priority 2005, published 2009).
Converted amounts (≈) assume the structure as drawn. Read-outs that look alike come from different tables or passages of the source.

Tests used:
[1] = test system: HSV-1 strain F; test: microbe, parasite or virus in culture; assay type: cell-based, herpes simplex virus; settings: Human alphaherpesvirus 1, HFF
[2] = test system: HSV-1 TK− strain DM2.1; test: microbe, parasite or virus in culture; assay type: cell-based, herpes simplex virus; settings: Human alphaherpesvirus 1, HFF
[3] = test system: CV strain delta crmA (TK+); test: microbe, parasite or virus in culture; assay type: cell-based; settings: Cowpox virus, Vero, read-out: CV delta crmA EC50 (TK+)
[4] = test system: CV strain TK:GFP lacZ (TK−); test: microbe, parasite or virus in culture; assay type: cell-based; settings: Cowpox virus, Vero, read-out: CV TK:GFP lacZ EC50 (TK−)
[5] = test system: ΔcrmA (TK+) CV strain; test: microbe, parasite or virus in culture; assay type: cell-based; settings: Cowpox virus, HFF, read-out: EC50 CV (Δcrm lacZ) TK+
[6] = test system: TK:GFP lacZ (TK−) CV strain; test: microbe, parasite or virus in culture; assay type: cell-based; settings: Cowpox virus, HFF, read-out: EC50 CV (TK:gpf lacZ)
[7] = in vitro; settings: human
[8] = target: purified VV TK (Vaccinia virus, UniProt P68564)
[9] = read-out: HSV-1 DM2.1 EC50 (TK−)

SMILES	EC50 ([1]; read-out: EC50 HSV-1 (F) TK+) [µg/mL]	EC50 ([1]; read-out: HSV-1 F EC50 (TK+)) [µg/mL]	EC50 ([2]; read-out: EC50 HSV-1 (DM2.1) TK−) [µg/mL]	EC50 [2, 9] [µg/mL]	EC50 [3] [µg/mL]	EC50 [4] [µg/mL]	EC50 [5] [µg/mL]	EC50 [6] [µg/mL]	CC50 [7] [µg/mL]	Vmax [8] [µM/min/mg]
O=c1[nH]c(=O)n([C@H]2C[C@H](O)[C@@H](CO)O2)cc1I [IDU, idoxuridine]	2.1 ± 0.1 (≈ 5.93 µM)	2.1 ± 0.1 (≈ 5.93 µM)	54 ± 8.1 (≈ 152 µM)	54 ± 8.1 (≈ 152 µM)	2.2 ± 0.87 (≈ 6.21 µM)	16 ± 9.3 (≈ 45.2 µM)	0.4 ± 0.18 (≈ 1.13 µM)	22 ± 9.3 (≈ 62.1 µM)	> 100	–
O=c1[nH]c(=O)n([C@H]2C[C@H](O)[C@@H](CO)O2)cc1/C=C/Br [BVDU, brivudin]	–	0.09 (≈ 0.27 µM)	–	100 (≈ 300 µM)	> 30	> 30	–	–	> 100	–
O=c1[nH]c(=O)n([C@H]2C[C@H](O)[C@@H](CO)O2)cc1C(F)(F)F [TFT, trifluridine]	–	1 ± 0.2 (≈ 3.38 µM)	–	1.1 ± 0.3 (≈ 3.71 µM)	0.42 ± 0.33 (≈ 1.42 µM)	0.72 ± 0.28 (≈ 2.43 µM)	–	–	> 100	–
Nc1nc(=O)n([C@@H]2O[C@H](CO)[C@@H](O)[C@@H]2F)cc1I [FIAC, fiacitabine]	–	0.06 ± 0.02 (≈ 0.162 µM)	–	8 ± 1.3 (≈ 21.6 µM)	18 ± 0.25 (≈ 48.5 µM)	9.2 ± 3.7 (≈ 24.8 µM)	–	–	> 100	<0.14
